Source: patent US20010049113A1, “Diagnosis and treatment of herpes infections” (priority 2000, published 2001)

Assays:
ATF-2 phosphorylation = ATF-2 phosphorylation in H-ras cells, Western blot; type: cell-based, murine; settings: SB203580
Description: (§1) Briefly, subconfluent monolayer cultures were lysed with the recommended SDS-containing sample buffer, the lysate was subjected to SDS-PAGE and electroblotted onto nitrocellulose paper. Blots were probed with anti-ERK1/2 or anti-phospho-ERK1/2 antibodies (for samples treated with FTI-1 or PD98059), anti-ATF-2 or anti-phospho-ATF-2 (for samples treated with SB203580), and anti-Akt and anti-phospho-Akt (for samples treated with Wortmannin). The antibody kits were purchased from New England Biolabs (MA). FTI-1, PD98059, SB203580 and Wortmannin were purchased from Calbiochem (CA).

HSV-1 [1] = assay: HSV-1 virus yield from H-ras transformed cells, plaque titration on Vero cells; type: cell-based; settings: MOI 0.5 PFU/cell, harvested 22 hours post infection, inhibitor present for entire infection
HSV-1 [2] = assay: HSV-1 viral protein synthesis in infected H-ras transformed NIH-3T3 cells, Western blot with rabbit anti-HSV-1 antibody; type: cell-based, HSV-1 (strain F); settings: for HSV-1 infection / infectivity (summary statement) / production of viral proteins: H-ras transformed NIH-3T3 cells; for production of viral proteins: 22 hours post-infection
Procedure: (§2) Western blot (Immunoblot) analysisinfected cells were lysed with the single detergent lysis buffer [50 mM Tris (pH 8.0), 150 mM NaCI, 0.02% sodium azide, 100 μg/ml phenylmethy-sulfonyl fluoride, 1 μg/ml aprotinin, and 1% Triton X-100], normalized for the amount of total protein and subjected to SDS-PAGE, followed by electroblotting onto nitrocellulose paper. The membrane was then washed and incubated with the primary antibody [rabbit antibody against all HSV-1 antigens (Dako, CA.; 1:20,000); mouse anti-ICP27 or anti-gC antibody (Rumbaugh-Goodwin Institute, FL; 1:1,000); rabbit anti-ICP8 antibody (from Dr. Paul Olivo, Washington University, St. Louis; 1:1,000); mouse anti-PKR and mouse anti-eIF-2 α antibody (Santa Cruz; 1:1,000); rabbit anti-phospho-PKR and rabbit antiphospho-eIF-2 α antibody (Biosource, CA; 1:1,000) followed by HRP-conjugated secondary antibody (1:2,000). After extensive washing, the blot was exposed to Lumigel detection solution (New England Biolabs) and subjected to autoradiography.
(§3) H-ras transformed NIH-3T3 cells were exposed to the farnesyl transferase inhibitors FTI-1 at a final concentration 50 μM or 100 μM in the culture medium. Control cells were not exposed to inhibitor. At 22 hours post-infection the cells were harvested and Western blot analysis was performed on these samples using rabbit anti-HSV-1 antibody, as described above.
as §3, with “To determine whether other inhibitors of farnesyl transferase would have the same effect on viral protein synthesis, three additional inhibitors were tested. H-ras” for “H-ras”, “FPTI-1, FPTI-2 and FTI-4” for “FTI-1”, “150 μM, 150” for “50”, “or 50” for “100”, “postinfection” for “post-infection”
HSV-1 infected H-ras transformed NIH-3T3 cells were exposed to 40 μM PD98059 in the culture medium. Control cells (HSV-1 infected) were not exposed to PD98059. At 22 hours post-infection, the cells were harvested and Western blot analysis was performed on these samples using rabbit anti-HSV antibody, as described above.
P-13 Kinase Pathway is Not Involved in HSV-1 InfectionH-ras cells that were infected with HSV-1 were exposed to Wortmannin at a final concentration of 200 nM for the entire duration of the infection. Cells were harvested at 22 hr. post infection, lysed and subjected to SDS PAGE followed by immunoblotting with a rabbit anti-HSV-1 antibody.

[3] = test system: ERK1/2 (Erk42/44) phosphorylation; assay: ERK1/2 phosphorylation in H-ras cells, Western blot; type: cell-based, murine
Description: as §1

HSV-1 [4] = assay: HSV-1 viral protein synthesis in PKR+/+ and PKR-/- mouse embryo fibroblasts, Western blot; type: cell-based; settings: MOI 0.5 PFU/cell, 20 hr post-infection
Procedure: The PKR^+/^+ and PKR^−/^− mouse embryo fibroblasts were obtained from Dr. B. R. G. Williams (the Cleveland Clinic Foundation) and were grown in α-MEM containing 10% FBS and antibiotics, as described.
as §2, with “After extensive washing, the blot was exposed to Lumigel detection solution (New England Biolabs) and subjected to autoradiography.” left out
The level of infection by R3616 in PKR^−/^− fibroblasts is equivalent to that seen in cells transformed by Ras, or elements of the Ras pathway. […] Cells were harvested at 20 hr post-infection and analyzed for viral proteins as above. […]

PKR phosphorylation = PKR phosphorylation in HSV-1 infected H-ras cells, immunoblot with anti-PKR / anti-phospho-PKR; type: cell-based, murine
Procedure: as §2
H-ras cells were exposed to FTI-1 (100 μM) or PD98059(40 μM) and the phosphorylation state of PKR was assessed using anti-PKR (total PKR) or anti-phospho-PKR (P-PKR) antibodies . […] The difference in phosphorylation of PKR in infected NIH-3T3 cells and in infected MEF cells is shown in the right side of FIG. 10, Panel “B”.

HSV-1 [5] = assay: Immunofluorescence of HSV-1-infected A549 cells; type: cell-based; settings: 100 μM FTI-1

| SMILES | phosphorylation of ATF-2 (ATF-2 phosphorylation) | virus yield (plaque titration on Vero cells) (HSV-1 [1]) | HSV-1 infection / infectivity (summary statement) (HSV-1 [2]) | effect on HSV-1 infection (viral proteins, immunoblot) (HSV-1 [2]; SB203580 at effective doses, H-ras transformed cells) | phosphorylation of ERK1/2 (ERK42/44) ([3]; FTI-1 50 μM or 100 μM) | production of viral proteins (HSV-1 [2]; FTI-1 50 μM or 100 μM in culture medium, vs control without inhibitor) | HSV-1 infection (viral protein synthesis) (HSV-1 [4]; PKR+/+ cells) | HSV-1 infection (viral protein synthesis) (HSV-1 [4]; PKR-/- cells) | PKR phosphorylation (PKR phosphorylation; FTI-1 100 μM) | level of viral proteins detected by immunofluorescence (HSV-1 [5]) | phosphorylation of ERK1/2 (Erk42/44) ([3]; PD98059 40 μM) | production of viral proteins (HSV-1 [2]; 40 μM PD98059, vs control) | PKR phosphorylation (PKR phosphorylation; PD98059 40 μM) |
| --- | --- | --- | --- | --- | --- | --- | --- | --- | --- | --- | --- | --- | --- |
| C[S+]([O-])c1ccc(-c2nc(-c3ccncc3)c(-c3ccc(F)cc3)[nH]2)cc1 (centres unmarked) [SB203580] | lack of phosphorylation of ATF-2 | does not effect virus yield | neither SB203580 [11] a specific inhibitor of p38 kinase, or Wortmannin [12] a specific inhibitor of P13-kinase, had any measurable effect | no effect on HSV-1 infection | – | – | – | – | – | – | – | – | – |
| CSCC[C@H](NC(=O)[C@H](Cc1ccccc1)NC[C@@H](NC[C@@H](N)CS)C(C)C)C(=O)O [FTI-1] | – | dramatically decreased virus yield | effectively block HSV-1 infection | – | reduced phosphorylation of ERK1/2 | drastically reduced | inhibited HSV-1 infection | no effect | PKR phosphorylation is restored | dramatically reduces the level of viral proteins detected | – | – | – |
| COc1cccc(-c2cc(=O)c3ccccc3o2)c1N [PD98059] | – | dramatically decreased virus yield | partially blocked HSV-1 infection | – | – | – | – | – | – | – | lack of phosphorylation of ERK1/2 | reduced | PKR phosphorylation is restored |
